Test results from patent US20250134895A1, “METHODS AND COMPOSITIONS FOR TREATING ALPHA-SYNUCLEIN-MEDIATED NEURODEGENERATION” (UNIVERSITY HEALTH NETWORK, priority 2021, published 2025).

Columns and labels:
[1] = tested on: transgenic A30P α-synuclein C. elegans; test: Coiler score and locomotion of C. elegans expressing A30P α-synuclein in dopaminergic neurons; format: in vivo, Caenorhabditis elegans
Method: Using high-resolution, multi-worm tracking with custom image processing, methods were developed for semi-automated and blinded scoring of circularity for a population of simultaneously recorded animals (n=10 per recording). A coiler score was determined for the population tested by first calculating the circularity value for each animal in each frame of video and then calculating the proportion of circularity values >0.6. […] The coiler phenotype is an abnormal motor behaviour previously reported for several unc C. elegans strains with mutations affecting neuronal function.
Animals were synchronized by isolating eggs using alkaline hypochlorite treatment and hatching overnight. Larvae were plated onto NGM agar plates with OP50 and grown for 4 days before recording locomotion. For individual C. elegans recordings, a single adult animal was randomly picked, washed for 1 to 2 minutes in M9 buffer, and then transferred to a fresh NGM plate without food for imaging. Video images were acquired (2 frames per second) for up to 6 minutes using a sCMOS camera (pco.edge, PCO) mounted on a stereomicroscope (Olympus MVX10 MacroView) controlled using the μManager software.^55 A total of 40 individual animals were imaged for each strain. For C. elegans population recordings, ten adult animals were randomly removed using an eyelash pick, washed for 1 minute in M9 buffer, and then transferred to a fresh NGM plate without food, with a ring of copper sulfate solution (150 mM) around the area of recording (a chemorepellent to keep the animals in the recording frame). Exploratory locomotion was recorded using a CCD camera (GX1920, Allied Vision) which was attached to a dissecting stereomicroscope (Leica M165C, 1.0× PlanApo lens). A Labview program captured video (2 frames per second) at 1936×1456 resolution. Using ImageJ, the displacement, perimeter, and area of each animal was calculated, from which a circularity value was computed using the following formula: circularity=4π(A/P^2), where A is the area of the animal's body and P is the perimeter of the animal's body (both expressed in arbitrary pixel units). […] Using MATLAB (Mathworks), various behavioural metrics including the coiler score were calculated, which is the percentage of frames with a circularity value >0.6. Speed was automatically computed from the ImageJ based WrmTrk plugin as the distance travelled by each animal (in pixels) over the amount of time that it was tracked (in seconds).56 Average speed was determined by calculating the weighted average of each tracked animal's speed within a single population of animals. On the day of the recording for dopamine or raclopride treatment, adult animals were washed for 1 minute in M9 buffer, treated in a solution containing either drug for 1 minute, and then placed onto fresh NGM plates without food, with a copper sulfate solution ring around the area of recording. […] Drug plates were prepared by adding each drug to LB medium with OP50 before spreading onto fresh NGM plates. The solvent used to dissolve each drug was used as vehicle control for the drug treatment experiments (M9 buffer for dopamine, distilled water for raclopride, DMSO for all other drugs).
After 72 hours of drug treatment, animals were randomly picked, washed, and recorded. A total of ten worms were recorded per population, and twelve populations were recorded for each of the four treatment groups. Locomotion was recorded for each population over a total of 1800 frames over three minutes. The animal's movement speed, area, and perimeter were automatically analyzed as previously described. Coiler score was calculated automatically using a ratio of the animal's area to perimeter, where a higher coiler score would represent a greater degree of α-synuclein-induced dopaminergic neuron dysfunction in vivo.

α-synuclein protein = test: Immunoblot for α-synuclein protein in lysates of treated C. elegans; format: in vivo, Caenorhabditis elegans; conditions: 50 μM
Description: The chaperone system is composed of chaperone proteins, such as HSP70 (heat shock protein 70), and co-chaperones. Together, these proteins are integral to maintaining cellular protein quality control by folding newly translated polypeptides into their native conformation, refolding misfolded proteins to prevent their aggregation, and targeting proteins to degradation pathways, such as the autophagy-lysosomal system or ubiquitin-proteasome system, when refolding is unsuccessful. From the above in vitro findings, it was predicted that perturbations to the chaperone system in vivo would affect coiling of the transgenic α-synuclein C. elegans. To test this prediction, we treated the animals were treated with the geldanamycin analogue, 17-(allylamino)-17-demethoxygeldanamycin (17-AAG). […]
Synchronized animals (4 or 5 days old) were lysed in 0.5X Tris-HCl buffer with 0.5% Triton X-100 at 100° C. for 5 minutes and then passed through a 23-gauge needle 10 times. […] Protein concentration was determined with a Bio-Rad Lowry protein assay (Bio-RAD, 5000116) according to the manufacturer's instructions. […] Beads were washed and samples were analysed by immunoblotting and mass spectrometry (see below). […] Signals were detected with ECL (ThermoFisher, 32132) and developed on HyBlot CL autoradiography film (DV-E3018).

H4 neuroglioma cells = tested on: H4 neuroglioma cells
Method: (§1) For controls in this assay, vehicle (i.e., DMSO), rapamycin, and bafilomycin A were used. Rapamycin, or sirolimus, is a small molecule that activates autophagy by inhibiting mTOR (mammalian target of rapamycin). […] To test this possibility, cells expressing α-synuclein were treated with each of the compounds and a cell permeable, resazurin-based assay was used to test for cell viability.
(§2) H4 neuroglioma cells (ATCC, HTB-148) were maintained in Dulbecco's Modified Eagle Medium plus high glucose, L-glutamine, and sodium pyruvate (ThermoFisher, 11995-065) with 10% heat-inactivated fetal bovine serum (ThermoFisher, 16140071) and 1% antibiotic-antimycotic cocktail (ThermoFisher, 15240062) at 37° C. and 5% CO2. DNA expression constructs encoding for full-length human α-synuclein fused to the N-terminal fragment of Gaussia princeps luciferase (syn-luc1), full-length human α-synuclein fused to the C-terminal fragment of Gaussia princeps luciferase (syn-luc2), and full-length Gaussia princeps luciferase were kindly provided by Dr. Pamela McLean, Mayo Clinic Jacksonville.^33 Cells were transiently co-transfected with syn-luc1 and syn-luc2 or transfected with luciferase alone using Superfect transfection reagent (Qiagen, 301305) according to the manufacturer's instructions. Twenty-four hours after transfection, cells were plated on a 96-well microplate at 60,000 cells per well. Twenty-four hours after plating, cells were treated with drugs or vehicle control. Following 24 hours of treatment, cells were washed 1 time with PBS and bioluminescence was measured using an automated CLARIOstar plate reader (Mandel, 430-0505). Cell permeable, native coelenterazine was used as the Gaussia luciferase substrate. Lyophilized coelenterazine (Nanolight, 303-500) was reconstituted in NanoFuel Solvent (Nanolight, 399-1), then diluted in PBS to 16.6 μg/mL, and dispensed per well to a final concentration of 20 μM). The bioluminescent signal generated by the luciferase enzyme was assessed at 470 nm over 5 seconds. Raw luminescence units were normalized to the DMSO vehicle control of each 96-well microplate. To assess cell viability, H4 neuroglioma cells were prepared and treated as described above and, 1 hour prior to viability analysis, cells were treated with PrestoBlue viability reagent (ThermoFisher, A13261) according to the manufacturer's instructions. Fluorescence was automatically measured using a CLARIOstar plate reader (Mandel, 430-0505) and then normalized to the fluorescence measure of the DMSO vehicle control.

[2] = tested on: full-length Gaussia princeps luciferase; test: Activity of full-length Gaussia luciferase alone in H4 cells; format: cell-based; conditions: Example 5, FIG. 5c
Method: as §1, §2

α-synuclein oligomers [3] = biological target: T1, α-synuclein oligomers (Homo sapiens, UniProt P37840); test: Venus YFP protein-fragment complementation assay in rat primary cortical neurons; format: cell-based; conditions: 72 hours; losartan 100 μM, rapamycin 50 nM, rifabutin 20 μM
Method: Specifically, adeno-associated viral vectors (AAV) were used to co-express human α-synuclein tagged with the N- or C-terminal half of Venus yellow fluorescent protein (YFP) in rat cortical neurons.
Pregnant Sprague Dawley rats (E17) were purchased from Charles River. Embryos were surgically removed, and neurons were harvested in a sterile environment. Neurons were plated on poly-D-lysine coated glass coverslips at a density of 5×10^5 cells per well in Neurobasal-A medium, (Gibco, 10888022) supplemented with B27 (2%) (Gibco, 17504044), antibiotic-antimycotic (1%) (Gibco, 15240062), and Glutamax (1%) (Gibco, 35050061). Fifty percent media changes were performed every 3 days. […] Two days post isolation, neurons were co-transduced with AAV-V1 S and AAV-SV2 or transduced with AAV-Venus alone at a MOI of 3,000. […] Concentrations were selected to avoid neuron toxicity according to previous reports.^57-61 Drug-containing media was removed, and cells were washed 1 time with ice-cold PBS before being fixed with 4% PFA (Sigma) at room temperature for 10 minutes. Levels of α-synuclein oligomers were measured by YFP fluorescence. […] YFP fluorescence intensity was analysed automatically using Imaris imaging software (Oxford Instruments). […]

α-synuclein oligomers [4] = biological target: T1, α-synuclein oligomers; test: Immunoblot of crosslinked split YFP-tagged α-synuclein oligomers in rat primary cortical neuron lysates; format: cell-based; set-up: full-length human α-synuclein fused to the N-terminal fragment of Venus YFP (V1 S); full-length human α-synuclein fused to the C-terminal fragment of Venus YFP (SV2); host or cells: rat (Sprague Dawley, E17) primary cortical neurons, AAV co-transduction; conditions: losartan 100 μM, rapamycin 50 nM, rifabutin 20 μM
Method: FIGS. 7A-7E. […] (a) Five positive hits were tested for their ability to reduce α-synuclein oligomer levels in rat primary cortical neurons measured with YFP-based protein-fragment complementation. […] Fluorescence intensity was analyzed using Imaris image analysis software by measuring the mean fluorescence intensity of α-synuclein positive neurons throughout a 3D field of view generated by z-stack image acquisition using the “surfaces” module. The value generated for each neuron was normalized to the mean fluorescence intensity of neurons treated with vehicle alone (N=3-4 replicates of n=10 fields of view for each treatment; each data point represents an individual replicate) (nested one-way ANOVA with Dunnett's post-hoc test, *p<0.05, *** p<0.001). […] Bottom: Representative fluorescent microscopy images of neurons treated with vehicle, losartan, rapamycin, or rifabutin and expressing YFP alone. Scale bars are […]. (e) Representative immunoblot to detect oligomers of split YFP-tagged α-synuclein (crosslinked) in rat primary cortical neuron lysates (actin used as a loading control).
Finally, it was examined whether these 5 compounds that had effects in our invertebrate C. elegans model reduce α-synuclein oligomers and α-synuclein-mediated dopaminergic neurodegeneration in mammalian systems.

α-synuclein oligomers [5] = biological target: T1, α-synuclein oligomers; test: Gaussia luciferase protein-fragment complementation cell assay of α-synuclein oligomers in H4 neuroglioma cells; format: cell-based; set-up: full-length human α-synuclein fused to the N-terminal fragment of Gaussia princeps luciferase (syn-luc1); full-length human α-synuclein fused to the C-terminal fragment of Gaussia princeps luciferase (syn-luc2); expressed in transfected cells; host or cells: H4 neuroglioma cells (ATCC, HTB-148), transient co-transfection; conditions: 1 μM or 10 μM, 24 hours of treatment
Method: as §1, §2
We used a bioluminescent protein-fragment complementation assay in which human H4 neuroglioma cells co-express human α-synuclein tagged with the N- or C-terminal half of Gaussia princeps luciferase (FIG. 12). Reconstitution of a complete and active luciferase molecule from the fragments occurs upon α-synuclein oligomerization, and so luminescence provides an indirect measure of α-synuclein oligomer levels. H4 neuroglioma cells were co-transfected with α-syn luciferase fragments, and constructs were plated into a 96-well plate and treated with either 1 μM or 10 μM of each of the 19 drug compounds.

| Compound | reduced coiling compared with vehicle control ([1]; 50 μM) [%] | α-synuclein protein levels (α-synuclein protein) | changes in viability (H4 neuroglioma cells) | changes in the activity of full-length Gaussia luciferase alone [2] | reduction in coiling compared with vehicle alone (decrease) ([1]; 100 μM of drug, 3 days on drug plates) [%] | decrease in fluorescence compared with vehicle alone (α-synuclein oligomers [3]) [%] | α-synuclein oligomers as detected by immunoblotting (α-synuclein oligomers [4]) | decrease in luciferase activity compared with vehicle alone (α-synuclein oligomers [5]) [%] |
| --- | --- | --- | --- | --- | --- | --- | --- | --- |
| C=CCNC1=C2C[C@@H](C)C[C@H](OC)[C@H](O)[C@@H](C)/C=C(\C)[C@H](OC(N)=O)[C@@H](OC)/C=C\C=C(/C)C(=O)NC(=CC1=O)C2=O [17-AAG, 17-(allylamino)-17-demethoxygeldanamycin] | 51 | lower |  |  |  |  |  |  |
| CCCCc1nc(Cl)c(CO)n1Cc1ccc(-c2ccccc2-c2nnn[nH]2)cc1 [Losartan, losartan] |  |  | No statistically significant changes | No statistically significant changes | 45 | 33 | reduction | 16 |
